Key:
[1] = tested on: DOCA-salt hypertensive rat; assay: antihypertensive activity in DOCA-salt hypertensive rat, oral administration; format: in vivo
Protocol: (§1) Cannulas are run intradermally so as to be externalized in the dorso-sacral area of either side and kept in place by wound clips. The rats are allowed to regain consciousness after being placed in a small animal restrainer. The arterial cannula is connected to a pressure transducer for constant blood pressure and heart rate monitoring. Drugs are administered either orally via gavage or i.v. via the femoral vein cannula at a rate of 0.06 ml./minute.
(§2) The above test is conducted on both normotensive and hypertensive rats. DOCA Salt hypertensive rats are prepared from male uninephrectomized Sprague-Dawley rats. The rats, approximately six weeks of age, are lightly anesthetized with ether and subcutaneously implanted with a 25 mg. deoxycorticosterone acetate pellet in the left dorso-sacral area. Six days later a second pellet is implanted in the right dorso-sacral area. These rats are fed a normal laboratory diet, but are given 1% saline solution to drink in place of water. The rats are kept on the saline drinking water for 22-24 days.
The effect of the oral administration of 6-chloro-2,3,4,5-tetrahydro-3-methyl-1H-3-benzazepine on blood pressure in the DOCA-salt hypertensive rat was also determined.

[2] = tested on: normotensive and hypertensive rats; assay: antihypertensive activity in conscious cannulated rats, i.v. administration; format: in vivo
Protocol: as §1, §2
The following table sets forth the effect of 6-chloro-2,3,4,5-tetrahydro-3-methyl-1 H-3-benzazepine on blood pressure after i.v. administration to both normotensive and hypertensive rats.

[3] = tested on: rabbit intraocular pressure; assay: normal rabbit intraocular pressure determination, instillation into the eye; format: in vivo; settings: instilled into the rabbit eye; at one hour; relative to the untreated eye
Protocol: The measurement of intraocular pressure depends on subjecting the eye to a force that indents or flattens it. Either the effect of a particular force or the force for a given effect is measured. The specific procedure employed for the compounds of this invention is a normal rabbit intraocular pressure determination. A solution of 0.5% proparacaine hydrochloride diluted 1:10 with physiological saline is instilled into the eye of a rabbit. The lids are gently massaged over the cornea to insure good distribution of the solution. The eye is exposed by separating the lids and the tip of a probe is slowly placed on the cornea at the point where the curvature of the cornea is the greatest, i.e., on the optic axis. Employing an Alcon Applanation Pneumatonograph, the intraocular pressure is determined in each eye until a stable reading is obtained. West, C., Capelta, J. and Kaufman, H., Am. J. Ophthalmol. 74:505 (1972).
Nine rabbits are used in each study, three animals for each dose in most circumstances. […] Immediately following the initial reading, the formulations to be tested, comprising concentrations of 0.01 to 10% of active ingredient, are instilled and pressure readings are taken at 0.5, 1, 2, 3, 4, and 6 hours post-instillation. The intraocular pressure is determined from the value recorded on the pneumotonograph chart paper. A mean intraocular pressure value is calculated at each time point. […]

[4] = tested on: conscious normotensive rabbits; assay: rabbit intraocular pressure determination, compound given systemically (ear vein infusion); format: in vivo; settings: given systemically to rabbits; result in words
alpha2 adrenoceptor = assay: prejunctional alpha2 antagonist activity, isolated superfused guinea pig left atrium (shift of the clonidine concentration-response curve); format: cell-based
Protocol: Briefly, the heart is removed from a pentobarbital-anesthetized male guinea pig. The left atrium is removed, dissected free of extraneous tissue and mounted in a 2 ml. superfusion chamber. The tissue is paced at 60 pulse/minute and the sympathetic nerves excited at 6 minute intervals by field stimulation. The response to nerve stimulation is measured as the difference in contractile force between the basal contraction and peak contraction following a nerve stimulation. A concentration-response curve for clonidine (alpha2 agonist) is prepared by administering an increasing concentration of clonidine following each successive stimulation. The tissue is then superfused with the alpha2 antagonist to be tested for thirty minutes and the clonidine concentration- effect curve was repeated in the presence of antagonist. The receptor dissociation constant of the antagonist (KB) is defined as the antagonist concentration required to shift the log concentration-response curve of the agonist to the right by a factor of 2.

SMILES	Δ BP ([1]; 2 mg/kg PO) [MM Hg]	Mean Arterial Pressure Post-Drug ([1]; 2 mg/kg PO, Pre-Drug 148 ± 11)	Δ BP ([1]; 5 mg/kg PO) [MM Hg]	Mean Arterial Pressure Post-Drug ([1]; 5 mg/kg PO, Pre-Drug 160 ± 7)	Δ BP ([1]; 10 mg/kg PO) [MM Hg]	Mean Arterial Pressure Post-Drug ([1]; 10 mg/kg PO, Pre-Drug 167 ± 8)	Diastolic Blood Pressure Decrease BP ([2]; DOCA Salt Hypertensive rats, n = 4, 0.5 mg/kg I.V., Pre Drug 135 ± 5 MMHg) [MMHg]	Diastolic Blood Pressure Decrease BP ([2]; DOCA Salt Hypertensive rats, n = 4, 1.0 mg/kg I.V., Pre Drug 135 ± 5 MMHg) [MMHg]	Diastolic Blood Pressure Decrease BP ([2]; Normotensive (control) (Sprague-Dawley) rats, n = 4, 0.5 mg/kg I.V., Pre Drug 95 ± 7 MMHg) [MMHg]	Diastolic Blood Pressure Decrease BP ([2]; Normotensive (control) (Sprague-Dawley) rats, n = 4, 1.0 mg/kg I.V., Pre Drug 95 ± 7 MMHg) [MMHg]	Diastolic Blood Pressure Decrease BP ([2]; Normotensive (control) (Wistar-Kyoto) rats, n = 4, 0.5 mg/kg I.V., Pre Drug 115 ± 3 MMHg) [MMHg]	Diastolic Blood Pressure Decrease BP ([2]; Normotensive (control) (Wistar-Kyoto) rats, n = 4, 1.0 mg/kg I.V., Pre Drug 115 ± 3 MMHg) [MMHg]	Diastolic Blood Pressure Decrease BP ([2]; Spontaneously Hypertensive rats, n = 7, 0.5 mg/kg I.V., Pre Drug 167 ± 3 MMHg) [MMHg]	Diastolic Blood Pressure Decrease BP ([2]; Spontaneously Hypertensive rats, n = 7, 1.0 mg/kg I.V., Pre Drug 167 ± 3 MMHg) [MMHg]	decrease of intraocular pressure [3]	effect on systemic blood pressure [4]	alpha2 antagonist activity relative to the 6-chloro derivative (alpha2 adrenoceptor; comparison of KB values)	Kb (alpha2 adrenoceptor; isolated perfused guinea pig left atrium, antagonist concentration shifting the clonidine curve to the right by a factor of 2) [nM]
CN1CCc2cccc(Cl)c2CC1 [6-chloro-2,3,4,5-tetrahydro-3-methyl-1H-3-benzazepine]	17 ± 3	131 ± 12	34 ± 4	127 ± 5	68 ± 8	99 ± 4	27 ± 3	33 ± 4	6 ± 2	13 ± 1	7 ± 2	10 ± 2	33 ± 7	46 ± 2	3.5 mm of mercury	no significant effect	–	–
CN1CCc2ccc(Cl)cc2CC1 [7-chloro-2,3,4,5-tetrahydro-3-methyl-1H-3-benzazepine]	–	–	–	–	–	–	–	–	–	–	–	–	–	–	–	–	about one tenth	150
